The subject of one experiment is T47D. Nature of the experiment: Antiproliferative activity against human T47D cells assessed as reduction in cell viability measured for 48 hr by MTT assay. In kind it is functional, cell-based. For orientation: Formazan colour is commonly taken as a measure of viable cells.
A further experiment concerns A549. In words: Antiproliferative activity against human A549 cells assessed as reduction in cell viability measured for 48 hr by MTT assay. In kind it is functional, cell-based. The note with it: A549, 48 h.
For the next experiment, the system named is HCT-15. In words: Antiproliferative activity against human HCT-15 cells assessed as reduction in cell viability measured for 48 hr by MTT assay. Type of experiment: functional, cell-based. The conditions noted are these: HCT-15, 48 h.
Experiment [1] deals with Influenza A virus. In words: Antiviral activity against Influenza A virus A/WSN/33(H1N1) strain. Type of experiment: functional, organism-based.
Experiment [2] has as its system Influenza A virus. In words: Antiviral activity against Influenza A virus H3N2 subtype. In kind it is functional, organism-based.
Experiment [3] concerns Influenza A virus. Nature of the experiment: Antiviral activity against influenza A virus. In kind it is functional, organism-based.
The subject of another experiment is Staphylococcus aureus. Nature of the experiment: Antibacterial activity against Staphylococcus aureus ATCC 6538 assessed as inhibition zone. Type of experiment: functional.
For a further experiment, the system named is Escherichia coli. Nature of the experiment: Antibacterial activity against Escherichia coli ATCC 11229 assessed as inhibition zone. Type of experiment: functional.
The subject of another experiment is Candida albicans. In words: Antifungal activity against Candida albicans ATCC 10231 assessed as inhibition zone. Type of experiment: functional.
A further experiment concerns the target Neprilysin (Homo sapiens, UniProt P08473). In words: Partial agonist activity at human neprilysin expressed in CHP-212 cells. In kind it is cell-based.
Another experiment deals with PC-3. In words: Antiproliferative activity against human PC-3 cells assessed as reduction in cell viability measured for 48 hr by MTT assay. In kind it is functional, cell-based. The note with it: PC-3, 48 h.
The next experiment deals with CCRF-CEM. Nature of the experiment: Antiproliferative activity against human CEM cells assessed as reduction in cell viability. In kind it is functional, cell-based.
The subject of experiment [4] is HeLa. In words: Antiproliferative activity against human HeLa cells assessed as reduction in cell viability at 10 to 50 uM relative to control. In kind it is functional. The conditions noted are these: dose 10-50 µM.
In experiment [5] the test system is PANC-1. Nature of the experiment: Antiproliferative activity against human PANC-1 cells assessed as reduction in cell viability at 25 to 50 uM relative to control. Type of experiment: functional. The conditions noted are these: dose 25-50 µM.
Experiment [6] has as its system HeLa. In words: Induction of cell cycle arrest in human HeLa cells assessed as accumulation of cells in subG1 phase. Type of experiment: functional.
Experiment [7] concerns PANC-1. In words: Induction of cell cycle arrest in human PANC-1 cells assessed as accumulation of cells in G0/G1 phase. In kind it is functional.

As usually defined, the IC50 is the concentration needed to halve the response being measured. By EC50 is commonly meant the concentration needed to bring the measured effect to its halfway point. The low end stands for higher potency in that assay, the high end for lower potency in that assay.

Chain of Neprilysin (P08473 whole entry): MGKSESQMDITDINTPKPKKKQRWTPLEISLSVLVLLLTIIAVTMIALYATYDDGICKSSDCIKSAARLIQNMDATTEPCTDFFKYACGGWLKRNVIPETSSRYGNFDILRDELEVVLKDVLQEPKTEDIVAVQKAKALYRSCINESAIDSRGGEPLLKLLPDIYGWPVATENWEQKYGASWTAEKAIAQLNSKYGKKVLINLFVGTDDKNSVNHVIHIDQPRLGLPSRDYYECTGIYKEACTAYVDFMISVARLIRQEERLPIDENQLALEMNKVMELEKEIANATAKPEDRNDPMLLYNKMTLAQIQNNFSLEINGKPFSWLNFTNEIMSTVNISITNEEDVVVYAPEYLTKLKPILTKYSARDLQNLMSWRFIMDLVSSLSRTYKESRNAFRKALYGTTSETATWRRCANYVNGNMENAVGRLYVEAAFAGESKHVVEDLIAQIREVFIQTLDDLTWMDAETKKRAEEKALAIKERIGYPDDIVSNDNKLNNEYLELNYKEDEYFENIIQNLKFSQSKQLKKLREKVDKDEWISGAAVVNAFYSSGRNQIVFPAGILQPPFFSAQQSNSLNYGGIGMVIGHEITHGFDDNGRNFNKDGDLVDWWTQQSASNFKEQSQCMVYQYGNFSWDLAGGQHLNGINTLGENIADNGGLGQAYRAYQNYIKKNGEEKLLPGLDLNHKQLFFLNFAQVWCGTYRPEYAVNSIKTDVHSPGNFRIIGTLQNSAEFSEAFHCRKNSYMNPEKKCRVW

For the compound `CCOC(=O)c1c(N)sc(/N=C/c2ccc([N+](=O)[O-])o2)c1C(=O)OCC`, the IC50 was determined as 21.4 µM in the experiment on T47D; 22.8 µM in the experiment with A549; 10.2 µM in the experiment with HCT-15; 0.94 µM in the experiment with Influenza A virus [1]; 2.4 µM with Influenza A virus [2]; 0.79 µM in the experiment with Influenza A virus [3]. Moreover, the “inhibition zone (IZ)” value in the experiment with Staphylococcus aureus was 22 mm; in the experiment with Escherichia coli, 16 mm; in the experiment on Candida albicans, greater than 22 mm.

In turn, `CCCN(CC(F)(F)F)c1cc(Br)c(C#N)s1` yielded an EC50 at Neprilysin of 0.005 µM.

Turning to `CCOC(=O)c1c(N)sc(/N=C/c2ccc([N+](=O)[O-])s2)c1C(=O)OCC`, the IC50 was 1.3 µM in the experiment on A549; 10.9 µM with PC-3; 6.1 µM in the experiment on HCT-15; 3.56 µM in the experiment with Influenza A virus [1]; 3.72 µM with Influenza A virus [2]; 10.5 µM with Influenza A virus [3].

Take `COC(=O)c1cc(CSCc2ccc(C(C)C)cc2)sc1N`: the IC50 with CCRF-CEM was 0.46 µM.

For the compound `COc1ccc(Br)cc1/C=N/c1sc2c(c1C#N)CCCCC2`, the Activity was determined as 35% with HeLa [4], 50% in the experiment with PANC-1 [5], 6.2% in the experiment with HeLa [6] and 28.2% in the experiment on PANC-1 [7].

As for `N#Cc1c(/N=C/c2ccc(F)cc2)sc2c1CCCC2`, the Activity is given as 50% in the experiment with HeLa [4], 68% in the experiment with PANC-1 [5], 12.05% in the experiment with HeLa [6] and 9.3% in the experiment with PANC-1 [7].

In the case of `CCc1ccc(CSCc2cc(C(=O)OC)c(N)s2)cc1`, the IC50 with CCRF-CEM is 0.34 µM.

Source of the values: ChEMBL document CHEMBL5260821, “2-Aminothiophene scaffolds: Diverse biological and pharmacological attributes in medicinal chemistry” (Eur J Med Chem, 2017).
